Data taken from patent US9018231B2, “Sulfone compounds as 5-HT6 receptor ligands” (Suven Life Sciences Limited, priority 2010, dated 2015).
Where two headings read alike, the source gives them in different places. One block for each compound: values may come before it.

Columns and labels:
[1] = Water maze (scopolamine induced reversal); assay type: in vivo; settings: rat, p.o.
Procedure: The water maze apparatus consisted of a circular pool (1.8 m diameter, 0.6 m high) constructed in black Perspex (TSE systems, Germany) filled with water (24±2° C.) and positioned underneath a wide-angled video camera to track animal. The 10 cm^2 perspex platform, lying 1 cm below the water surface, was placed in the centre of one of the four imaginary quadrants, which remained constant for all rats. The black Perspex used in the construction of the maze and platform offered no intramaze cues to guide escape behavior. By contrast, the training room offered several strong extramaze visual cues to aid the formation of the spatial map necessary for escape learning. An automated tracking system, [Videomot 2 (5.51), TSE systems, Germany] was employed. This program analyzes video images acquired via a digital camera and an image acquisition boards that determined path length, swim speed and the number of entries and duration of swim time spent in each quadrant of the water maze.

[2] = Object recognition task model; assay type: in vivo; settings: rat, 10 mg/kg, p.o.
Procedure: The cognition-enhancing properties of compounds of this invention were estimated using a model of animal cognition: the object recognition task model.
Male Wister rats (230-280 grams) obtained from N.I.N. (National Institute of Nutrition, Hyderabad, India) was used as experimental animals. Four animals were housed in each cage. Animals were kept on 20% food deprivation before one day and given water ad libitum throughout the experiment and maintained on a 12 hours light/dark cycle. Also the rats were habituated to individual arenas for 1 hour in the absence of any objects.
One group of 12 rats received vehicle (1 mL/Kg) orally and another set of animals received compound of the formula (I) either orally or i.p., before one hour of the familiar (T1) and choice trial (T2).
The experiment was carried out in a 50×50×50 cm open field made up of acrylic. In the familiarization phase, (T1), the rats were placed individually in the open field for 3 minutes, in which two identical objects (plastic bottles, 12.5 cm height×5.5 cm diameter) covered in yellow masking tape alone (a1 and a2) were positioned in two adjacent corners, 10 cm. from the walls. After 24 hours of the (T1) trial for long-term memory test, the same rats were placed in the same arena as they were placed in T1 trial. Choice phase (T2) rats were allowed to explore the open field for 3 minutes in presence of one familiar object (a3) and one novel object (b) (Amber color glass bottle, 12 cm high and 5 cm in diameter). Familiar objects presented similar textures, colors and sizes. During the T1 and T2 trial, explorations of each object (defined as sniffing, licking, chewing or having moving vibrissae whilst directing the nose towards the object at a distance of less than 1 cm) were recorded separately by stopwatch. Sitting on an object was not regarded as exploratory activity, however, it was rarely observed. T1 is the total time spent exploring the familiar objects (a1+a2). T2 is the total time spent exploring the familiar object and novel object (a3+b).
The object recognition test was performed as described by Ennaceur, A., Delacour, J., 1988, A new one-trial test for neurobiological studies of memory in rats—Behavioural data, Behav. Brain Res., 31, 47-59.

[3] = biological target: T1, recombinant human 5-HT6 receptor (Homo sapiens, UniProt P50406); assay: Determination of Kb values for 5-HT6 receptor (CHO pCRE-Luc reporter assay); assay type: cell-based; settings: antagonism of 10 uM serotonin, luciferase reporter, CHO cells
T1 construct: expressed in transfected cells
T1 sequence (P50406 whole entry): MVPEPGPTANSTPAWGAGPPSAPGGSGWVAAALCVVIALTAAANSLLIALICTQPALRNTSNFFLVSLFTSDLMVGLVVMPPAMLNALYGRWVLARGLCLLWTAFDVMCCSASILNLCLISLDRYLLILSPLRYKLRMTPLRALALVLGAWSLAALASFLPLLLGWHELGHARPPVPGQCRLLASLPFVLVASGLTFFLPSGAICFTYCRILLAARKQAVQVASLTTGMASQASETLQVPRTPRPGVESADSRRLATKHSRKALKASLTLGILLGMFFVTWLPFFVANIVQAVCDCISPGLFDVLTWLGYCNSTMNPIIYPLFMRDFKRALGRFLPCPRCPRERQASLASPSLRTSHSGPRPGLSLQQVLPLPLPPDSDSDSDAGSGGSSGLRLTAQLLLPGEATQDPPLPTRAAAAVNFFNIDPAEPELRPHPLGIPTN
Procedure: A stable CHO cell line expressing recombinant human 5-HT6 receptor and pCRE-Luc reporter system was used for cell-based assay. The assay offers a non-radioactive based approach to determine binding of a compound to GPCRs. In this specific assay, the level of intracellular cyclic AMP which is modulated by activation or inhibition of the receptor is measured. The recombinant cells harbor luciferase reporter gene under the control of cAMP response element.
The above cells were grown in 96 well clear bottom white plates in Hams F12 medium containing 10% fetal bovine serum (FBS). Prior to the addition of compounds and/or agonist, cells were serum starved overnight. Increasing concentrations of test compounds were added along with 10 uM serotonin in Hams F12 medium containing 1% dialyzed FBS to the cells. The incubation was continued at 37° C. in CO2 incubator for 4 hours. Medium was removed and cells were washed with phosphate buffered saline. The cells were lysed and luciferase activity was measured in a Luminometer. Luminescence units were plotted against the compound concentrations using Graphpad software. EC50 values of the compounds were defined as the concentration required reducing the luciferase activity by 50%. The Kb values were calculated by feeding the concentration of the agonist used in the assay and its EC50 value in the same software.

[4] = in vivo; cited from earlier work
[5] = Rodent pharmacokinetic study; assay type: in vivo; settings: Wistar/Male rat, 10 mg/kg; for AUCt / Cmax / T1/2 / Tmax / AUC(0-t) / half-life: vehicle water (Ex. 8: 50% PEG 400); for bioavailability: Oral vs Intravenous
Procedure: Male wistar rats (230-280 grams) obtained from NIN (National Institute of Nutrition, Hyderabad, India) were used as an experimental animal. Three to five animals were housed in each cage. Animals were kept fasted over night and maintained on a 12 hours light/dark cycle. Three rats were dosed NCE (10 mg/Kg) orally and intravenously on day 0 and day 2.
At each time point blood was collected by jugular vein. Plasma was stored frozen at −20° C. until analysis. The concentrations of the NCE compound in plasma were determined using LC-MS/MS method. Schedule time points: Pre dose 0.25, 0.5, 1, 1.5, 2, 3, 4, 6, 8, 10, 12 and 24 hours after dosing (n=3). The NCE compounds were quantified in plasma by validated LC-MS/MS method using solid phase extraction technique. NCE compounds were quantified in the calibration range of 2-2000 ng/mL in plasma. Study samples were analyzed using calibration samples in the batch and quality control samples spread across the batch.
Pharmacokinetic parameters Cmax, Tmax, AUCt, T1/2 and Bioavailability were calculated by non-compartmental model using software WinNonlin version 5.1.

melting point: 208 to 208.9 °C
Kb [3]: 0.22 nM
SMILES: COc1ccc(S(=O)(=O)c2c[nH]c3cc(Cl)ccc23)cc1NC1CCNCC1 [Example 16, N-(Piperidin-4-yl)-N-[2-methoxy-5-(6-chloro-1H-Indole-3-ylsulfonyl)phenyl] amine]
Scopolamine Induced Reversal [1]: ≦10 mg/kg, p.o.
Exploration time mean ± S.E.M, Familiar object [2]: 8.10 ± 1.78 s
Exploration time mean ± S.E.M, Novel object [2]: 12.00 ± 1.84 s
Inference [2]: Active

SMILES: COc1ccc(NS(=O)(=O)c2sc3ccc(Cl)cc3c2C)cc1N1CCNCC1 [SB-271046, 5-Chloro-N-(4-methoxy-3-piperazin-1-ylphenyl)-3-methyl-2-benzothiophenesulfonamide]
activity in animal tests related to positive or negative symptoms of schizophrenia [4]: inactive

SMILES: Cc1ccc(S(=O)(=O)c2c[nH]c3cc(Cl)ccc23)cc1NC1CCN(C)CC1 [Example 1, N-[2-methyl-5-(6-chloro-1H-indole-3-ylsulfonyl)phenyl]-N-(1-methypiperidin-4-yl)amine]
AUCt ([5]; Intravenous): 2484 ± 853 ng·h/mL
Cmax ([5]; Intravenous): 1644 ± 582 ng/mL
T1/2 ([5]; Intravenous): 5.23 ± 2.08 h
Tmax ([5]; Intravenous): 0.14 ± 0.10 h
bioavailability [5]: 31 ± 12%
AUCt ([5]; Oral): 750 ± 363 ng·h/mL
Cmax ([5]; Oral): 128 ± 13 ng/mL
T1/2 ([5]; Oral): 6.38 ± 1.38 h
Tmax ([5]; Oral): 3.42 ± 2.74 h
Scopolamine Induced Reversal [1]: ≦10 mg/kg, p.o.
Exploration time mean ± S.E.M, Familiar object [2]: 10.10 ± 1.84 s
Exploration time mean ± S.E.M, Novel object [2]: 13.22 ± 2.00 s
Inference [2]: Active
Kb [3]: 1.55 nM

AUC(0-t) ([5]; plasma, Intravenous): 5730 ± 2620 ng·h/mL
half-life ([5]; plasma, Intravenous): 3.86 ± 0.09 h
Cmax ([5]; plasma, Intravenous, read-out: Cmax): 4220 ± 2250 ng/mL
Tmax ([5]; plasma, Intravenous, read-out: Tmax): 0.08 h
bioavailability ([5]; plasma, read-out: Bioavailability): 24 ± 2%
AUC(0-t) ([5]; plasma, Oral): 1430 ± 734 ng·h/mL
half-life ([5]; plasma, Oral): 1.86 ± 0.09 h
Cmax ([5]; plasma, Oral, read-out: Cmax): 379 ± 160 ng/mL
Tmax ([5]; plasma, Oral, read-out: Tmax): 3 h
melting point: 88.6 to 91.6 °C
Kb [3]: 0.82 nM
SMILES: COc1ccc(S(=O)(=O)c2c[nH]c3cc(Cl)ccc23)cc1NC1CCN(C)CC1 [Example 17, N-(1-Methylpiperidin-4-yl)-N-[2-methoxy-5-(6-chloro-1H-Indole-3-ylsulfonyl)phenyl] amine]
